Experimental data taken from patent publication US8232271B2 (priority 2008, dated 2012).

What was measured:
[1] = biological target: T1, HCV polymerase (NS5B570n-Con1) (Hepatitis C virus genotype 1b, UniProt Q9WMX2); experiment: HCV NS5B RNA polymerase activity assay; type: biochemical, HCV Con1 strain
T1 construct: contains a 21 amino acid deletion at the C-terminus relative to the full-length HCV polymerase; 6-histidine (N); made in house; host or cells: E. coli BL21(DE) pLysS, plasmid pET17b
Method: The enzymatic activity of HCV polymerase (NS5B570n-Con1) was measured as the incorporation of radiolabeled nucleotide monophosphates into acid insoluble RNA products. Unincorporated radiolabeled substrate was removed by filtration and scintillant was added to the washed and dried filter plate containing radiolabeled RNA product. The amount of RNA product generated by NS5B570-Con1 at the end of the reaction was directly proportional to the amount of light emitted by the scintillant.
The N-terminal 6-histidine tagged HCV polymerase, derived from HCV Con1 strain, genotype 1b (NS5B570n-Con1) contains a 21 amino acid deletion at the C-terminus relative to the full-length HCV polymerase and was purified from E. coli strain BL21(DE) pLysS. The construct, containing the coding sequence of HCV NS5B Con1 (GenBank accession number AJ242654) was inserted into the plasmid construct pET17b, downstream of a T7 promoter expression cassette and transformed into E. coli. A single colony was grown overnight as a starter culture and later used inoculate 10 L of LB media supplemented with 100 μg/mL ampicillin at 37° C. Protein expression was induced by the addition of 0.25 mM isopropyl-β-D-thiogalactopyranoside (IPTG) when optical density at […] of the culture was between 0.6 and 0.8 and cells were harvested after 16 to 18 h at 30° C. NS5B570n-Con1 was purified to homogeneity using a three-step protocol including subsequent column chromatography on Ni-NTA, SP-Sepharose HP and Superdex 75 resins.
Each 50 μl enzymatic reaction contained 20 nM RNA template derived from the complementary sequence of the Internal Ribosome Entry Site (cIRES), 20 nM NS5B570n-Con1 enzyme, 0.5 μCi of tritiated UTP (Perkin Elmer catalog no. TRK-412; specific activity: 30 to 60 Ci/mmol; stock solution concentration from 7.5×10^-5 M to 20.6×10^-6 M), 1 μM each ATP, CTP, and GTP, 40 mM Tris-HCl pH 8.0, 40 mM NaCl, 4 mM DTT (dithiothreitol), 4 mM MgCl2, and 5 μl of compound serial diluted in DMSO. Reaction mixtures were assembled in 96-well filter plates (cat #MADVN0B, Millipore Co.) and incubated for 2 h at 30° C. Reactions were stopped by addition of 10% final (v/v) trichloroacetic acid and incubated for 40 min at 4° C. Reactions were filtered, washed with 8 reaction volumes of 10% (v/v) trichloroacetic acetic acid, 4 reaction volumes of 70% (v/v) ethanol, air dried, and 25 μl of scintillant (Microscint 20, Perkin-Elmer) was added to each reaction well.
The amount of light emitted from the scintillant was converted to counts per minute (CPM) on a Topcount® plate reader (Perkin-Elmer, Energy Range: Low, Efficiency Mode: Normal, Count Time: 1 min, Background Subtract: none, Cross talk reduction: Off).
Data was analyzed in Excel® (Microsoft®) and ActivityBase® (Idbs®). The reaction in the absence of enzyme was used to determine the background signal, which was subtracted from the enzymatic reactions. Positive control reactions were performed in the absence of compound, from which the background corrected activity was set as 100% polymerase activity. All data was expressed as a percentage of the positive control. The compound concentration at which the enzyme-catalyzed rate of RNA synthesis was reduced by 50% (IC50) was calculated by fitting
[formula] equation (i) to the data. where “Y” corresponds to the relative enzyme activity (in %), “% Min” is the residual relative activity at saturating compound concentration, “% Max” is the relative maximum enzymatic activity, “X” corresponds to the compound concentration, and “S” is the Hill coefficient (or slope).

| Structure (SMILES) | IC50 [1] [nM] | melting point [°C] |
| --- | --- | --- |
| COc1cc(CN(CCO)S(C)(=O)=O)c(-c2ccc[nH]c2=O)cc1C(C)(C)C [Compound I-35, N-[4-tert-butyl-5-methoxy-2-(2-oxo-1,2-dihydro-pyridin-3-yl)-benzyl]-N-(2-hydroxy-ethyl)-methanesulfonamide] | 26 | 234.7 to 236 |
| COc1cc(CN2Cc3ccc(NS(C)(=O)=O)cc3C2=O)c(-c2ccc[nH]c2=O)cc1C(C)(C)C [Compound I-92] | 8 | 173 to 175 |
| COc1cc(CN2C(=O)CC[C@@H]2C(=O)O)c(-c2ccc[nH]c2=O)cc1C(C)(C)C [Compound I-71, (R)-1-[4-tert-Butyl-5-methoxy-2-(2-oxo-1,2-dihydro-pyridin-3-yl)-benzyl]-5-oxo-pyrrolidine-2-carboxylic acid] | 36 | 199 to 200 |
| COc1cc(CN2C(=O)CCC2=O)c(-c2ccc[nH]c2=O)cc1C(C)(C)C [Compound I-29] | 68 | 112.2 to 124.9 |
| COc1cc(C(=O)N(C)Cc2ccncc2)c(-c2ccc[nH]c2=O)cc1C(C)(C)C [Compound I-58] | 1140 | 199 to 201 |
| COc1cc(C(C)NS(C)(=O)=O)c(-c2ccc[nH]c2=O)cc1C(C)(C)C (stereo not drawn) [Compound I-52, N-{1-[4-tert-butyl-5-methoxy-2-(2-oxo-1,2-dihydro-pyridin-3-yl)-phenyl]-ethyl}-methanesulfonamide] | 654 | 284 to 286 |
| COc1cc(CN(Cc2ccccc2)S(C)(=O)=O)c(-c2ccc[nH]c2=O)cc1C(C)(C)C [Compound I-26] | 145 | 229 to 230 |
| COc1cc(CN2CCN(C)S2(=O)=O)c(-c2ccc[nH]c2=O)cc1C(C)(C)C [Compound I-64, 3-[5-tert-Butyl-4-methoxy-2-(5-methyl-1,1-dioxo-1λ^6-[1,2,5]thiadiazolidin-2-ylmethyl)-phenyl]-1H-pyridin-2-one] | 60 | 253 to 255 |
| COc1cc(C(=O)N(C)C)c(-c2ccc[nH]c2=O)cc1C(C)(C)C [Compound I-41] | 1680 | 208 to 210 |
| COc1cc(C(=O)N2CCOCC2)c(-c2ccc[nH]c2=O)cc1C(C)(C)C [Compound I-40] | 533 | 208 to 210 |
| COc1cc(Cn2c(=O)n(C)c3ccccc32)c(-c2ccc[nH]c2=O)cc1C(C)(C)C [Compound I-69, 1-[4-tert-Butyl-5-methoxy-2-(2-oxo-1,2-dihydro-pyridin-3-yl)-benzyl]-3-methyl-1,3-dihydro-benzoimidazol-2-one] | 34 | 140 to 142 |
| COc1cc(CN2CCNS2(=O)=O)c(-c2ccc[nH]c2=O)cc1C(C)(C)C [Compound I-60, 3-[5-tert-Butyl-2-(1,1-dioxo-1λ^6-[1,2,5]thiadiazolidin-2-ylmethyl)-4-methoxy-phenyl]-1H-pyridin-2-on] | 23 | 230 to 231 |
| COc1cc(CN(C(C)C)S(C)(=O)=O)c(-c2ccc[nH]c2=O)cc1C(C)(C)C [Compound I-28] | 33 | 285 to 286 |
| COc1cc(C(=O)N2CCC(C#N)CC2)c(-c2ccc[nH]c2=O)cc1C(C)(C)C [Compound I-56, 1-[4-tert-Butyl-5-methoxy-2-(2-oxo-1,2-dihydro-pyridin-3-yl)-benzoyl]-piperidine-4-carbonitrite] | 432 | 213 to 215 |
| COc1cc(CN2CCCCC2=O)c(-c2ccc[nH]c2=O)cc1C(C)(C)C [Compound I-23] | 52 | 224.6 to 228.9 |
| COc1cc(C(=O)N(C)CC#N)c(-c2ccc[nH]c2=O)cc1C(C)(C)C [Compound I-66] | 152 | 211 to 212 |
| COc1cc(CN(CC2CCNC2)S(C)(=O)=O)c(-c2ccc[nH]c2=O)cc1C(C)(C)C (stereo not drawn) [Compound I-31, N-[4-tert-Butyl-5-methoxy-2-(2-oxo-1,2-dihydro-pyridin-3-yl)-benzyl]-N-pyrrolidin-3-ylmethyl-methanesulfonamide] | 97 | 158 to 160 |

| Structure (SMILES) | IC50 [1] [nM] | melting point [°C] |
| --- | --- | --- |
| COc1cc(CN2CCCCS2(=O)=O)c(-c2ccc[nH]c2=O)cc1C(C)(C)C [Compound I-16] | 35 | 225.8 to 226.1 |
| COc1cc(CNC(=O)c2ccc(N)cc2)c(-c2ccc[nH]c2=O)cc1C(C)(C)C [Compound I-42, 4-Amino-N-[4-tert-butyl-5-methoxy-2-(2-oxo-1,2-dihydro-pyridin-3-yl)-benzyl]-benzamide] | 36 | 165 to 167 |
| CCN(Cc1cc(OC)c(C(C)(C)C)cc1-c1ccc[nH]c1=O)S(C)(=O)=O [Compound I-27] | 44 | 245 to 246 |
| COc1cc(CNS(=O)(=O)C(C)C)c(-c2ccc[nH]c2=O)cc1C(C)(C)C [Compound I-25] | 183 | 118 to 120 |
| COc1cc(CCNS(C)(=O)=O)c(-c2ccc[nH]c2=O)cc1C(C)(C)C [Compound I-17, N-{2-[4-tert-butyl-5-methoxy-2-(2-oxo-1,2-dihydro-pyridin-3-yl)-phenyl]-ethyl}-methanesulfonamide] | 280 | 219.3 to 222.4 |
| COc1cc(C(=O)N(C)Cc2ccc(F)cc2)c(-c2ccc[nH]c2=O)cc1C(C)(C)C [Compound I-77] | 611 | 218 to 220 |
| COc1cc(CN2C(=O)CC[C@H]2CO)c(-c2ccc[nH]c2=O)cc1C(C)(C)C [Compound I-72, 3-[5-tert-Butyl-2-((S)-2-hydroxymethyl-5-oxo-pyrrolidin-1-ylmethyl)-4-methoxy-phenyl]-1H-pyridin-2-one] | 77 | 146 to 148 |
| COc1cc(CN2CCN(C(=O)OC(C)(C)C)S2(=O)=O)c(-c2ccc[nH]c2=O)cc1C(C)(C)C [Compound I-61] | 319 | 125 to 127 |
| COc1cc(CO)c(-c2ccc[nH]c2=O)cc1C(C)(C)C [Compound I-2, 3-(5-tert-Butyl-2-hydroxymethyl-4-methoxy-phenyl)-1H-pyridin-2-one] | 1010 | 215 to 216 |
| COc1cc(C(=O)N2CCC(F)(F)CC2)c(-c2ccc[nH]c2=O)cc1C(C)(C)C [Compound I-62] | 955 | 223 to 224 |
| COc1cc(C(=O)N2CCC(CO)C2)c(-c2ccc[nH]c2=O)cc1C(C)(C)C (stereo not drawn) [Compound I-73] | 1610 | 201 to 203 |
| COc1cc(C(C)N(C)S(C)(=O)=O)c(-c2ccc[nH]c2=O)cc1C(C)(C)C (stereo not drawn) [Compound I-53, N-{1-[4-tert-Butyl-5-methoxy-2-(2-oxo-1,2-dihydro-pyridin-3-yl)-phenyl]-ethyl}-N-methyl-methanesulfonamide] | 187 | 205 to 207 |
| COc1cc(C(=O)N2CC(O)C2)c(-c2ccc[nH]c2=O)cc1C(C)(C)C [Compound I-68] | 211 | 236 to 238 |
| CC(C)(C)c1ccc(NS(C)(=O)=O)c(-c2ccc[nH]c2=O)c1 [Compound I-6, N-[4-tert-Butyl-2-(2-oxo-1,2-dihydro-pyridin-3-yl)-phenyl]-methane sulfonamide] | 3850 | 219.3 to 233.8 |
| COc1cc(CN(C)S(C)(=O)=O)c(-c2ccc[nH]c2=O)cc1C(C)(C)C [Compound I-86] | 52 | 230 to 231 |
| COc1cc(CN2C(=O)CC[C@@H]2CO)c(-c2ccc[nH]c2=O)cc1C(C)(C)C [Compound I-83] | 146 | 150 to 152 |
